Results: patent US10689622B2, “Culture medium for proliferating stem cell, which contains sulfated compound” (AJINOMOTO CO., INC., priority 2012, dated 2020)

What was measured:
bFGF [1] = target: T1, bFGF (Homo sapiens, UniProt P09038); assay: Evaluation of bFGF stabilization in Essential 8 medium (ELISA); assay type: biochemical; settings: 37° C. for 7 days
T1 construct: purchased Lonza (via TAKARA BIO INC.) Ser. No. 00/190,632
Protocol: (§1) A commercially available measurement kit (human bFGF ELISA kit, ELH-bFGF-001, Ray Biotech) was used for quantification of bFGF in the medium. The measurement procedures followed the protocol attached to the kit. The bFGF concentration of the serum-free medium was calculated from the analytical curve (conversion formula) drawn from the absorbance of an analytical curve standard solution. The evaluation criteria of Tables 5-8 are as follows:
(§2) A test compound was dissolved in phosphate buffered saline, and diluted 10-fold with a serum-free medium to adjust the concentration shown in Table 4 (test sample). The test sample was left standing in a tightly sealed Falcon tube at 37° C. for 7 days, and the bFGF concentration was quantified by ELISA measurement. A phosphate buffered saline without a test compound was diluted 10-fold with Essential 8 medium or ReproFF2 medium, and left standing at 37° C. or 4° C. for 7 days, and used as a control.
as §1, with “Table 13” for “Tables 5-8”
as §2, with “Table 12” for “Table 4”

bFGF [2] = target: T1, bFGF; assay: Evaluation of bFGF stabilization in Lonza serum-free medium (ELISA); assay type: biochemical; settings: for bFGF concentration relative to that of 4° C. control (ELISA): Lonza serum-free medium, 37° C. for 7 days; for effectiveness ELISA: effectiveness in ELISA evaluation of mesenchymal stem cells (medium), 4° C. control ratio
Protocol: A test compound was dissolved in phosphate buffered saline, and diluted 10-fold with a serum-free medium to adjust to the concentrations shown in Table 4 (test sample). The test sample was left standing in a tightly sealed Falcon tube at 37° C. for 7 days (Tables 5 to 8-2) or 3 days (Table 8-3), and the bFGF concentration was quantified by ELISA measurement. A phosphate buffered saline without a test compound was diluted 10-fold with a serum-free medium, and left standing at 37° C. or 4° C. for 7 days or 3 days, and used as a control.
as §1
as §2, with “adjust to” for “adjust”, “the concentrations” for “the concentration”, “Table 13” for “Table 4”, “with a serum-free” for “with Essential 8 medium or ReproFF2”
as §1, with “Table 13” for “Tables 5-8”, “follows: […]” for “follows:”

[3] = Measurement of content level of sulfur in test compound (ICP); assay type: physicochemical; settings: ICPS-8100, evaluation samples containing 0.01 wt % test compound
Source text: (§3) The content level of sulfur in the sulfated saccharide is generally not less than 5 wt %, preferably not less than 10 wt %, more preferably not less than 15 wt %, and the upper limit is generally not more than 40 wt %, preferably not more than 35 wt %, more preferably not more than 30 wt %. […] Here, the content level of sulfur is a proportion in wt % of sulfur derived only from the sulfate group in sulfated saccharides, which can be measured by a method known in the field (e.g., rhodizonate method, elemental analysis or luminescent spectral analysis).
as §3, with “polymer” for “saccharide”, “wt” for “wt %, preferably not more than 35 wt %, more preferably not more than 30 wt”, “in” for “derived only from”, “the” for “the sulfate group in”, “polymer,” for “saccharides,”, “such as” for “(e.g.,”
The relationship between the content level of sulfur in a test compound (sulfur content) and the cell proliferation promoting effect was examined. The sulfur content was measured using ICPS-8100 manufactured by SHIMADZU CORPORATION and analyzed using ICPS-8000 series Ver1.03. As the reference standard of sulfur, the standard for ICP-MS manufactured by Accu Standard was used. Sulfur reference standard solutions (0, 1, 10, 30, 50 ppm) were prepared, and the sulfur content of the evaluation samples containing 0.01 wt % test compound was measured by an analytical curve method.

[4] = tested on: Human bone marrow-derived mesenchymal stem cells; assay: Mesenchymal stem cell proliferation system (cell number by DNA quantification); settings: growth of mesenchymal stem cell, control ratio
Protocol: Human bone marrow-derived mesenchymal stem cells (Lonza, Human Mesenchymal Stem Cell) cultured in mesenchymal stem cell-dedicated medium (Lonza, MSCGM) or Dulbecco's Modified Eagle Medium (Invitrogen, GIBCO D-MEM) containing inactivated fetal bovine serum (Invitrogen, GIBCO FBS) and penicillin-streptomycin (Sigma-Aldrich Co. LLC.) were cultured in exchanged Lonza serum-free medium. The mesenchymal stem cells thus-acclimated to serum-free culture were suspended in Lonza serum-free medium, and seeded on a 24 well culture plate (Nippon Becton Dickinson Company, Ltd., Falcon culture plate) at 20,000 cells/well or a 6 well culture plate (Nippon Becton Dickinson Company, Ltd., Falcon culture plate) at 50,000 cells/well. Then, a test compound solution after filter sterilization and adjustment to a given concentration was added, and the cells were cultured in an incubator (Thermo Scientific, Forma incubator) under the 5% CO2/37° C. conditions for 7 to 8 days. When the medium exchange was necessary, the medium was exchanged 2 to 3 days after the seeding. In this case, the test compound solution was also added again in the same manner as in seeding. In this case, various compound solutions were added again in the same manner as in seeding. After culturing for 7 to 8 days, the medium was removed and DNA quantification was performed. As a control, the cells were cultured in the same manner in a medium without a test compound and added with phosphate buffered saline.
The medium in the 24 well culture plate was removed, and the cells were washed with phosphate buffered saline. The sodium lauryl sulfate solution (500 μl/well) was added, and the mixture was left standing at 37° C. for 4 hours. The sodium lauryl sulfate solution (1.0 ml) was also added to a cell pellet with a known cell number, and the mixture was left standing at 37° C. for 4 hours. As for the cells in the 24 well culture plate, a part (50 μl) of the lysate was transferred to a 96 well black microplate. The solution used for treating the cell pellets was successively diluted with sodium lauryl sulfate solution and used as solutions for drawing an analytical curve. Also, a part (50 μl) of the solutions for drawing an analytical curve was each transferred to the 96 well black microplate. […] The fluorescence was measured by a microplate reader (excitation wavelength: 355 nm, measurement wavelength: 460 nm) within 5 minutes from the addition. The cell number of the 24 well cell culture plate was calculated from the analytical curve drawn (conversion formula). The evaluation criteria were as follows.

T1 sequence (P09038 143-288): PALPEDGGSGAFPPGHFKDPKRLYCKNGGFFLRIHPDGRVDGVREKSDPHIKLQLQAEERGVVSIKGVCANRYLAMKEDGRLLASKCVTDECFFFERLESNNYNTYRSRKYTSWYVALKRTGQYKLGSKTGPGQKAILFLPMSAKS

Row | Compound | concentration showing a suppressive effect on a decrease in the bFGF concentration of the medium (bFGF [1]) | bFGF concentration relative to that of 4° C. control (ELISA) (bFGF [1]; test compound 250 pg/ml) | bFGF concentration relative to that of 4° C. control (ELISA) (bFGF [1]; test compound 25 ng/ml) | bFGF concentration relative to that of 4° C. control (ELISA) (bFGF [1]; test compound 250 ng/ml) | bFGF concentration relative to that of 4° C. control (ELISA) (bFGF [1]; test compound 25 μg/ml) | bFGF concentration relative to that of 4° C. control (ELISA) (bFGF [1]; test compound 250 μg/ml) | bFGF concentration relative to that of 4° C. control (ELISA) (bFGF [2]; test compound 25 ng/ml) | bFGF concentration relative to that of 4° C. control (ELISA) (bFGF [2]; test compound 250 ng/ml) | bFGF concentration relative to that of 4° C. control (ELISA) (bFGF [2]; test compound 25 μg/ml) | bFGF concentration relative to that of 4° C. control (ELISA) (bFGF [2]; test compound 250 μg/ml) | effectiveness ELISA (bFGF [2]) | sulfur content Found (inorganic analysis) [3] [wt %] | effectiveness cells [4]
1 | α-cyclodextrin SO3Na [α-CD•SO3Na] | not less than 2.5 μg/ml | x (bFGF concentration was less than 10% relative to that of 4 °C control) | x (bFGF concentration was less than 10% relative to that of 4 °C control) | x (bFGF concentration was less than 10% relative to that of 4 °C control) | +++ (bFGF concentration was not less than 70% relative to that of 4 °C control) | +++ (bFGF concentration was not less than 70% relative to that of 4 °C control) | x (bFGF concentration was less than 10% relative to that of 4 °C control) | + (bFGF concentration was not less than 30% and less than 50% relative to that of 4 °C control) | − (bFGF concentration was not less than 10% and less than 30% relative to that of 4 °C control) | + (bFGF concentration was not less than 30% and less than 50% relative to that of 4 °C control) | ++ (++ 50%<) | 14 | 
2 | O=S(=O)([O-])OC1C(OS(=O)(=O)[O-])C(OS(=O)(=O)[O-])C(OS(=O)(=O)[O-])C(OS(=O)(=O)[O-])C1OS(=O)(=O)[O-].[K+].[K+].[K+].[K+].[K+].[K+] (stereo not shown) [myo-inositol 6SO3K] | not less than 25 μg/ml | x (bFGF concentration was less than 10% relative to that of 4 °C control) | x (bFGF concentration was less than 10% relative to that of 4 °C control) | x (bFGF concentration was less than 10% relative to that of 4 °C control) | +++ (bFGF concentration was not less than 70% relative to that of 4 °C control) | +++ (bFGF concentration was not less than 70% relative to that of 4 °C control) | x (bFGF concentration was less than 10% relative to that of 4 °C control) | x (bFGF concentration was less than 10% relative to that of 4 °C control) | + (bFGF concentration was not less than 30% and less than 50% relative to that of 4 °C control) | ++ (bFGF concentration was not less than 50% and less than 70% relative to that of 4 °C control) | +++ (+++ 70%<) | 19 | 
3 | glycerol SO3Na |  |  |  |  |  |  | x (bFGF concentration was less than 10% relative to that of 4 °C control) | x (bFGF concentration was less than 10% relative to that of 4 °C control) | x (bFGF concentration was less than 10% relative to that of 4 °C control) | x (bFGF concentration was less than 10% relative to that of 4 °C control) | + (+ 30%<) | 23 | 
4 | xylitol SO3Na |  |  |  |  |  |  | x (bFGF concentration was less than 10% relative to that of 4 °C control) | x (bFGF concentration was less than 10% relative to that of 4 °C control) | x (bFGF concentration was less than 10% relative to that of 4 °C control) | ++ (bFGF concentration was not less than 50% and less than 70% relative to that of 4 °C control) | +++ (+++ 70%<) | 25 | ◯ (◯ not leas than 100%)
5 | stachyose SO3Na | not less than 250 μg/ml | x (bFGF concentration was less than 10% relative to that of 4 °C control) | x (bFGF concentration was less than 10% relative to that of 4 °C control) | x (bFGF concentration was less than 10% relative to that of 4 °C control) | x (bFGF concentration was less than 10% relative to that of 4 °C control) | ++ (bFGF concentration was not less than 50% and less than 70% relative to that of 4 °C control) | x (bFGF concentration was less than 10% relative to that of 4 °C control) | − (bFGF concentration was not less than 10% and less than 30% relative to that of 4 °C control) | +++ (bFGF concentration was not less than 70% relative to that of 4 °C control) | +++ (bFGF concentration was not less than 70% relative to that of 4 °C control) | +++ (+++ 70%<) | 18 | 
6 | glucose SO3Na | not less than 2.5 mg/ml | x (bFGF concentration was less than 10% relative to that of 4 °C control) | x (bFGF concentration was less than 10% relative to that of 4 °C control) | x (bFGF concentration was less than 10% relative to that of 4 °C control) | +++ (bFGF concentration was not less than 70% relative to that of 4 °C control) | +++ (bFGF concentration was not less than 70% relative to that of 4 °C control) | x (bFGF concentration was less than 10% relative to that of 4 °C control) | x (bFGF concentration was less than 10% relative to that of 4 °C control) | x (bFGF concentration was less than 10% relative to that of 4 °C control) | − (bFGF concentration was not less than 10% and less than 30% relative to that of 4 °C control) | + (+ 30%<) | 23 | 
